Test results published in ChEMBL document CHEMBL1201862, “PubChem BioAssay data set” (2004).
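How tested: cells in 96-well plates exposed to compound for 48 hours at five concentrations. GI50 = concentration required for 50% inhibition of growth.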 Activity calls are given as the source filed them. Cut-off read from the data, not from the text of the source: active = GI50 up to about 1.1 µM and inactive = higher.

Experiments:
Assay in all cases: NCI-60 cell line screen, 48 h
[1] = test system: 786-0
[2] = test system: MCF7
[3] = test system: UO-31
[4] = test system: SR
[5] = test system: CCRF-CEM
[6] = test system: PC-3
[7] = test system: HT-29
[8] = test system: MDA-MB-231
[9] = test system: OVCAR-3
[10] = test system: Hs-578T
[11] = test system: K562
[12] = test system: A498
[13] = test system: SF-268
[14] = test system: NCI-H460
[15] = test system: IGROV-1
[16] = test system: DU-145
[17] = test system: HCT-116
[18] = test system: SF-539
[19] = test system: OVCAR-5
[20] = test system: TK-10

Measured: GI50

CC12CCC(C(Nc3ccccn3)C1=O)C2(C)C (stereo not given)
inactive: [1] > 100 µM | [2] > 100 µM | [3] > 100 µM | [4] > 100 µM | [5] > 100 µM | [6] > 100 µM | [7] > 100 µM | [8] > 100 µM | [9] > 100 µM | [10] > 100 µM | [11] > 100 µM | [12] > 100 µM | [13] > 100 µM | [14] > 100 µM | [15] > 100 µM | [16] > 100 µM | [17] > 100 µM | [18] > 100 µM | [19] > 100 µM | [20] > 100 µM

CCOC(=O)c1c(NS(=O)(=O)c2ccc(Br)cc2)sc2c1CCCC2
inactive: [1] 9.31 µM | [2] 10.3 µM | [3] 3.51 µM | [4] 19.7 µM | [5] 5.51 µM | [6] 5.41 µM | [7] 5.3 µM | [8] 7.29 µM | [9] 3.93 µM | [10] 4.43 µM | [11] 5.79 µM | [12] 9.4 µM | [13] 3.72 µM | [14] 6.4 µM | [15] 4.21 µM | [16] 8 µM | [17] 7.52 µM | [18] 7.91 µM | [19] 6.71 µM | [20] 10.8 µM

Nc1nc(Cl)c(N)c(NCC2(CO)CCC2)n1
inactive: [1] > 100 µM | [2] > 100 µM | [3] > 100 µM | [4] > 100 µM | [5] > 100 µM | [6] > 100 µM | [7] > 100 µM | [8] > 100 µM | [9] > 100 µM | [10] > 100 µM | [11] > 100 µM | [12] > 100 µM | [13] > 100 µM | [14] > 100 µM | [15] > 100 µM | [16] > 100 µM | [17] > 100 µM | [18] > 100 µM | [19] > 100 µM | [20] > 100 µM

C[C@]12CCC(O)CC1=CC[C@@H]1[C@@H]2CC[C@]2(C)C(=O)[C@H](n3ccnc3)C[C@@H]12 (stereo not given in full)
inactive: [1] > 100 µM | [2] 35.8 µM | [3] 75.9 µM | [4] 32.4 µM | [5] 22.1 µM | [6] 28.6 µM | [7] 28.2 µM | [8] > 100 µM | [9] > 100 µM | [10] > 100 µM | [11] 38 µM | [12] > 100 µM | [13] > 100 µM | [14] 40.9 µM | [15] > 100 µM | [16] > 100 µM | [17] 54.5 µM | [18] 58.6 µM | [19] > 100 µM | [20] > 100 µM

CC(C)(C(=O)NN)c1ccccc1
inactive: [1] > 100 µM | [2] > 100 µM | [3] 76.6 µM | [4] > 100 µM | [5] > 100 µM | [6] > 100 µM | [7] > 100 µM | [8] > 100 µM | [9] > 100 µM | [10] > 100 µM | [11] > 100 µM | [12] > 100 µM | [13] 45.3 µM | [14] 37.2 µM | [15] 8.79 µM | [16] > 100 µM | [17] > 100 µM | [18] 42.2 µM | [19] > 100 µM | [20] > 100 µM

CC1(C)OCC(C2OC(N3O[C@H](CI)C[C@@H]3c3ccccc3)C3OC(C)(C)OC23)O1 (stereo not given in full)
inactive: [1] > 100 µM | [2] > 100 µM | [3] > 100 µM | [4] 48.5 µM | [5] > 100 µM | [6] 34 µM | [7] 61.9 µM | [8] > 100 µM | [9] > 100 µM | [10] > 100 µM | [11] > 100 µM | [12] > 100 µM | [13] > 100 µM | [14] 56.1 µM | [15] > 100 µM | [16] > 100 µM | [17] 61 µM | [18] > 100 µM | [19] > 100 µM | [20] > 100 µM

Cc1nc(O)nc2nc3ccc(Cl)cc3c(NCCNCCO)c12
inactive: [1] 8.75 µM | [2] 13.6 µM | [3] 8.65 µM | [4] 8.07 µM | [5] 9.27 µM | [6] 13.7 µM | [7] 10.3 µM | [8] 11.7 µM | [9] 12.5 µM | [10] 13.5 µM | [11] 8.59 µM | [12] 20.3 µM | [13] 10.1 µM | [14] 12.5 µM | [15] 12.3 µM | [16] 16 µM | [17] 5.85 µM | [18] 7.16 µM | [19] 13.2 µM | [20] 18.7 µM
